In assay [1] the target is T1, endogenous cellular BACE2 (human TMEM27 cleavage) in the Ins 1e rat cell line (Rattus norvegicus, UniProt Q6IE75).
T1 construct: endogenous cellular BACE2 in the Ins 1e rat cell line; endogenous in cells; host or cells: INS-TMEM27 (INS1e-derived rat cell line with doxycycline-inducible full-length human TMEM27)
T1 sequence (Q6IE75 63-514): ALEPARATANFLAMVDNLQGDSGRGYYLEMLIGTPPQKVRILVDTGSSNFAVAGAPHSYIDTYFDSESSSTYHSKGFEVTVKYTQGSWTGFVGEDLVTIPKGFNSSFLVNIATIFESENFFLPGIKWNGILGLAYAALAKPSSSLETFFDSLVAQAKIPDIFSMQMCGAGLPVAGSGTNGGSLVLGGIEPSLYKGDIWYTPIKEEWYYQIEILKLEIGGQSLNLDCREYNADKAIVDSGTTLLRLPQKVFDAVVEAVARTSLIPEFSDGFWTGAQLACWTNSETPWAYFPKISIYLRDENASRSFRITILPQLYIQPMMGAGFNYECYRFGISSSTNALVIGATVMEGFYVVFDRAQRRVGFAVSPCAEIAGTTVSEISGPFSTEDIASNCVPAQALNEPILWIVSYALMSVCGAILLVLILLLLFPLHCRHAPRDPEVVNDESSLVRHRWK
Briefly: Assay for BACE inhibition by measuring cellular TMEM27 cleavage. Format: cell-based. The following applies: INS-TMEM27 cells, shed TMEM27 in culture medium by ELISA. From the text:
Assay for BACE Inhibition by Measuring Cellular TMEM27 Cleavage:
The assay uses the principle of inhibition of human TMEM27 cleavage by endogenous cellular BACE2 in the Ins 1e rat cell line and shedding from the cell surface into the culture medium, followed by detection in an ELISA assay. Inhibition of BACE2 prevents the cleavage and shedding in a dose-dependent manner.
The stable cell line “INS-TMEM27” represents an INSle-derived cell line with inducible expression (using the TetOn system) of full-length hTMEM27 in a doxycycline-dependent manner. The cells are cultured throughout the experiment in RPMI1640+Glutamax (Invitrogen) Penicillin/Streptomycin, 10% Fetal bovine serum, […], […], 100 micrograms/ml G418 and 100 microgram/ml hygromycin and are grown inadherent culture at 37° C. in a standard CO2 cell culture incubator.
INS-TMEM27 cells are seeded in 96-well plates. After 2 days in culture, BACE2 inhibitor is added in a range of concentrations as required by the assay and after a further two hours, doxycycline is added to a final concentration of 500 ng/ml. The cells are incubated for a further 46 hours and the supernatant harvested for detection of shed TMEM27.
An ELISA assay (using a pair of mouse anti-human-TMEM27 antibodies, raised against the extracellular domain of TMEM27) is used for detection of TMEM27 in the culture medium. An EC50 for BACE2 inhibition is calculated using the ELISA readout for each inhibitor concentration with standard curve-fitting software such as XLFit for the Excel spreadsheet program.
A general note: ELISA stands for enzyme-linked immunosorbent assay.

For assay [2], the system named is Aβ40 in Human HEK293 cells stably transfected with human APP wt gene (APP695). Put plainly: Cellular Aβ-lowering assay. The assay is classed as cell-based. The conditions noted are these: HEK293 cells expressing human APP695, Aβ40 in culture supernatant by ELISA after 18-20 hrs; read-out: Cellular assay Abeta40 IC50. Here is the method: Cellular Aβ-lowering Assay:
Human HEK293 cells which are stably transfected with a vector expressing a cDNA of the human APP wt gene (APP695) were used to assess the potency of the compounds in a cellular assay. The cells were seeded in 96-well microtiter plates in cell culture medium (Iscove, plus 10% (v/v) fetal bovine serum, glutamine, penicillin/streptomycin) to about 80% confluence and the compounds were added at a 10× concentration in 1/10 volume of medium without FCS containing 8% DMSO (final concentration of DMSO was kept at 0.8% v/v). After 18-20 hrs incubation at 37° C. and 5% CO2 in a humidified incubator the culture supernatant was harvested for the determination of Aβ40 concentrations. 96 well ELISA plates (e.g., Nunc MaxiSorb) were coated with monoclonal antibody which specifically recognize the C-terminal end of Aβ40 (Brockhaus et al., NeuroReport 9, 1481-1486; 1998). After blocking of non-specific binding sites with e.g. 1% BSA and washing, the culture supernatants were added in suitable dilutions together with a horseradish peroxidase-coupled Aβ detection antibody (e.g., antibody 4G8, Senetek, Maryland Heights, Mo.) and incubated for 5 to 7 hrs. Subsequently the wells of the microtiter plate were washed extensively with Tris-buffered saline containing 0.05% Tween 20 and the assay was developed with tetramethylbenzidine/H2O2 in citric acid buffer. After stopping the reaction with one volume 1 NH2SO4 the reaction was measured in an ELISA reader at 450 nm wavelength. The concentrations of Aβ in the culture supernatants were calculated from a standard curve obtained with known amounts of pure Aβ peptide.

Structures can show the parent of a compound that is named as a salt.

On to `COCC#Cc1ccc(C(=O)Nc2ccc(F)c([C@@]3(C)N=C(N)COCC3(F)F)c2)nc1` [Example 8, (R)—N-(3-(3-Amino-6,6-difluoro-5-methyl-2,5,6,7-tetrahydro-1,4-oxazepin-5-yl)-4-fluorophenyl)-5-(3-methoxyprop-1-ynyl)picolinamide formate], for which the figures for the IC50 in assay [1] and in assay [2] were 837 nM and 70 nM, respectively.

On to `C[C@]1(c2cc(NC(=O)c3ccc(C4CC4)cn3)ccc2F)N=C(N)COCC1(F)F` [Example 7, (R)—N-(3-(3-Amino-6,6-difluoro-5-methyl-2,5,6,7-tetrahydro-1,4-oxazepin-5-yl)-4-fluorophenyl)-5-cyclopropylpicolinamide formate], for which the IC50 was found to be 123 nM in assay [1] and 25 nM in assay [2].

`C[C@]1(c2cc(NC(=O)c3ccc(C#CC4CC4)cn3)ccc2F)N=C(N)COCC1(F)F` [Example 6, (R)—N-(3-(3-Amino-6,6-difluoro-5-methyl-2,5,6,7-tetrahydro-1,4-oxazepin-5-yl)-4-fluorophenyl)-5-(cyclopropylethynyl)picolinamide formate]: the IC50 is 311 nM in assay [1] and 20 nM in assay [2].

For `C[C@]1(c2cc(NC(=O)c3ccc(-c4nccs4)cn3)ccc2F)N=C(N)COCC1(F)F` [Example 3, (R)—N-(3-(3-Amino-6,6-difluoro-5-methyl-2,5,6,7-tetrahydro-1,4-oxazepin-5-yl)-4-fluorophenyl)-5-(thiazol-2-yl)picolinamide formate], the IC50 in assay [1] worked out at 5730 nM; in assay [2], 10 nM.

With `CC[C@]1(c2cc(NC(=O)c3ncoc3C3CC3)ccc2F)N=C(N)COCC1(F)F` [Example 4, (R)—N-(3-(3-Amino-5-ethyl-6,6-difluoro-2,5,6,7-tetrahydro-1,4-oxazepin-5-yl)-4-fluorophenyl)-5-cyclopropyloxazole-4-carboxamide], the figures for the IC50 in assay [1] and in assay [2] were 662 nM and 2400 nM, respectively.

Take `C[C@]1(c2cc(NCC3CC3)ccc2F)N=C(N)COC[C@@H]1F` [Example 9, (5R,6R)-5-(5-(Cyclopropylmethylamino)-2-fluorophenyl)-6-fluoro-5-methyl-2,5,6,7-tetrahydro-1,4-oxazepin-3-amine]: the IC50 in assay [1] was 22.6 nM; in assay [2] it was 28 nM.

Take `CSc1cnc(C(=O)Nc2ccc(F)c([C@@]3(C)N=C(N)COCC3(F)F)c2)cn1` [Example 5, (R)—N-(3-(3-Amino-6,6-difluoro-5-methyl-2,5,6,7-tetrahydro-1,4-oxazepin-5-yl)-4-fluorophenyl)-5-(methylthio)pyrazine-2-carboxamide formate]: the IC50 in assay [1] came out at 103 nM; in assay [2], 10 nM.

With `C[C@]1(c2cc(NC(=O)c3ncc(C(N)=O)cc3F)ccc2F)N=C(N)COCC1(F)F` [Example 1, (R)—N2-(3-(3-Amino-6,6-difluoro-5-methyl-2,5,6,7-tetrahydro-1,4-oxazepin-5-yl)-4-fluorophenyl)-3-fluoropyridine-2,5-dicarboxamide formate], the IC50 in assay [1] turned out to be 14600 nM; in assay [2], 350 nM.

By IC50 is commonly meant the concentration needed to halve the response being measured.
